Measured values taken from BindingDB's records for doi:10.1021/acs.jmedchem.6b01169 (Gilead Sciences, 2016).

Target: Phosphatidylinositol 3-kinase regulatory subunit alpha/4,5-bisphosphate 3-kinase catalytic subunit delta isoform (Homo sapiens, UniProt P27986+O00329)
Experiment: Inhibition of human full length PI3K p110delta/p85alpha using phosphatidylinositol […] as substrate measured after 30 mins by TR-FRET assay

Sequence of Phosphatidylinositol 3-kinase regulatory subunit alpha/4,5-bisphosphate 3-kinase catalytic subunit delta isoform (P27986 whole entry, canonical isoform): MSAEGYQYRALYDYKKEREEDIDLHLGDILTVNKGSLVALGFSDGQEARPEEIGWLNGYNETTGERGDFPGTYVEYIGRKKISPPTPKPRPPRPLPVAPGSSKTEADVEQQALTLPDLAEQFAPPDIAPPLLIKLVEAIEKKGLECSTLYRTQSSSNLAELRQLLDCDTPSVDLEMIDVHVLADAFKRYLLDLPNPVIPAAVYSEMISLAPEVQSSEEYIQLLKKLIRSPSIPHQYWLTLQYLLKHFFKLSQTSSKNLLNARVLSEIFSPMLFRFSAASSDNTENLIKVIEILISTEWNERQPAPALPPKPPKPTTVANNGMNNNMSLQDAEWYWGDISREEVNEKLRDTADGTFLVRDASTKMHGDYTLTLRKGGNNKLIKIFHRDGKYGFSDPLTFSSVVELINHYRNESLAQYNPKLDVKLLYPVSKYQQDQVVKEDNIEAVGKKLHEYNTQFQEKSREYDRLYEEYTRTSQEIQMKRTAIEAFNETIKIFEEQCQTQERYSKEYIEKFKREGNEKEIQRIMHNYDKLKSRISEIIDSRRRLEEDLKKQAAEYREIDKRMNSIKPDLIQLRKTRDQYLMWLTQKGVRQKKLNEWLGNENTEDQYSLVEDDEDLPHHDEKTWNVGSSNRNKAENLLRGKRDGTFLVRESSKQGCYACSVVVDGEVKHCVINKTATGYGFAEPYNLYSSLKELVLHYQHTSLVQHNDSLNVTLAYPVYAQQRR
Sequence of Phosphatidylinositol 3-kinase regulatory subunit alpha/4,5-bisphosphate 3-kinase catalytic subunit delta isoform (O00329 whole entry, canonical isoform): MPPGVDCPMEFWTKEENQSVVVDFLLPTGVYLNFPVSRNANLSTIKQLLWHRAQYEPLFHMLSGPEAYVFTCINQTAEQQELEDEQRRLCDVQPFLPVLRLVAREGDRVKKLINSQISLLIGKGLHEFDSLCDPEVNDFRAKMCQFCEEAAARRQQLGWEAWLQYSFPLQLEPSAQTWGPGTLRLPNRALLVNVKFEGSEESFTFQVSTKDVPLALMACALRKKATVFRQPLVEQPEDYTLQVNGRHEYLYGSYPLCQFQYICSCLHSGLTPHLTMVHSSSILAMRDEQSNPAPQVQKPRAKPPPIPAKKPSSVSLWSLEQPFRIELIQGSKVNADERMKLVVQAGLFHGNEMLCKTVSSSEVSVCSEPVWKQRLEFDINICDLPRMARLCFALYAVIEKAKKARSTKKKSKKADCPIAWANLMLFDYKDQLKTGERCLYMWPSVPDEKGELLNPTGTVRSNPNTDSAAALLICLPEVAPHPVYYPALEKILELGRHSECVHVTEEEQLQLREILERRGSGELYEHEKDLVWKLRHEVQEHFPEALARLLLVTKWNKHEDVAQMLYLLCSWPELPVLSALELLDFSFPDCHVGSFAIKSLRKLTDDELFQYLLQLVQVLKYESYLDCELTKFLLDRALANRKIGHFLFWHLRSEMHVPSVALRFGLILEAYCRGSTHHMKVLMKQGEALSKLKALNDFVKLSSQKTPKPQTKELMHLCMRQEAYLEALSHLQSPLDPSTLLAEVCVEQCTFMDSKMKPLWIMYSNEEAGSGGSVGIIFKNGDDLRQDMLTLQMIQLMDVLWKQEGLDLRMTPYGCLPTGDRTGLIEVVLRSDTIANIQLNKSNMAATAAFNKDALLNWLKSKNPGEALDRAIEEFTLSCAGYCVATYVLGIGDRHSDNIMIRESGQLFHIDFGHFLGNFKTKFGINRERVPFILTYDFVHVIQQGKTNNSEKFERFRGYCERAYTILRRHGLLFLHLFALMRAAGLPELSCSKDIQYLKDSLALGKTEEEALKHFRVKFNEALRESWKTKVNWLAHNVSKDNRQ

Row | SMILES | IC50 [nM]
1 | C[C@H](Nc1nc(N)nc(N)c1C#N)c1nc2cccc(Cl)c2c(=O)n1-c1cccnc1 [US9221795, 1] | 0.6
2 | C[C@H](Nc1nc(N)nc(N)c1C#N)c1nc2cccc(Cl)c2c(=O)n1-c1cncc(Cl)c1 [US9221795, 13] | 8
3 | COc1cncc(-n2c([C@H](C)Nc3nc(N)nc(N)c3C#N)nc3cccc(Cl)c3c2=O)c1 [US9221795, 14] | 4
4 | C[C@H](Nc1nc(N)nc(N)c1C#N)c1nc2cccc(Cl)c2c(=O)n1-c1cncc(C2CC2)c1 [US9221795, 19] | 5

More lines, now with the values ahead:

Row | IC50 [nM] | SMILES
5 | 6 | C[C@H](Nc1nc(N)nc(N)c1C#N)c1nc2c(Cl)cccc2c(=O)n1-c1cccnc1 [US9221795, 22]
6 | 0.4 | C[C@H](Nc1nc(N)nc(N)c1C#N)c1nc2c(F)ccc(Cl)c2c(=O)n1-c1cccnc1 [US9221795, 24]
7 | 8 | C[C@H](Nc1nc(N)nc(N)c1C#N)c1nc2c(F)ccc(F)c2c(=O)n1-c1cccnc1 [US9221795, 25]
8 | 0.4 | Cc1ccncc1-n1c([C@H](C)Nc2nc(N)nc(N)c2C#N)nc2cccc(Cl)c2c1=O [US9221795, 40]
